ChEMBL document CHEMBL5543112, “Discovery of CBPD-268 as an Exceptionally Potent and Orally Efficacious CBP/p300 PROTAC Degrader Capable of Achieving Tumor Regression” (J Med Chem, 2024)
Blank lines part the entries; values can stand above or below the compound they belong to.

Columns and labels:
[1] = biological target: Protein cereblon/CREB-binding protein (Homo sapiens, UniProt Q92793+Q96SW2); assay: PROTAC activity at CBP/CRBN in human U2OS cells assessed as induction of CBP degradation incubated for 24 hrs by Nan-glo HiBiT lytic assay; format: cell-based
[2] = biological target: Protein cereblon/Histone acetyltransferase p300 (Homo sapiens, UniProt Q09472+Q96SW2); assay: PROTAC activity at p300/CRBN in human U2OS cells assessed as induction of p300 degradation incubated for 24 hrs by Nan-glo HiBiT lytic assay; format: cell-based
Protein cereblon/Histone acetyltransferase p300, sequence (Q09472 whole entry): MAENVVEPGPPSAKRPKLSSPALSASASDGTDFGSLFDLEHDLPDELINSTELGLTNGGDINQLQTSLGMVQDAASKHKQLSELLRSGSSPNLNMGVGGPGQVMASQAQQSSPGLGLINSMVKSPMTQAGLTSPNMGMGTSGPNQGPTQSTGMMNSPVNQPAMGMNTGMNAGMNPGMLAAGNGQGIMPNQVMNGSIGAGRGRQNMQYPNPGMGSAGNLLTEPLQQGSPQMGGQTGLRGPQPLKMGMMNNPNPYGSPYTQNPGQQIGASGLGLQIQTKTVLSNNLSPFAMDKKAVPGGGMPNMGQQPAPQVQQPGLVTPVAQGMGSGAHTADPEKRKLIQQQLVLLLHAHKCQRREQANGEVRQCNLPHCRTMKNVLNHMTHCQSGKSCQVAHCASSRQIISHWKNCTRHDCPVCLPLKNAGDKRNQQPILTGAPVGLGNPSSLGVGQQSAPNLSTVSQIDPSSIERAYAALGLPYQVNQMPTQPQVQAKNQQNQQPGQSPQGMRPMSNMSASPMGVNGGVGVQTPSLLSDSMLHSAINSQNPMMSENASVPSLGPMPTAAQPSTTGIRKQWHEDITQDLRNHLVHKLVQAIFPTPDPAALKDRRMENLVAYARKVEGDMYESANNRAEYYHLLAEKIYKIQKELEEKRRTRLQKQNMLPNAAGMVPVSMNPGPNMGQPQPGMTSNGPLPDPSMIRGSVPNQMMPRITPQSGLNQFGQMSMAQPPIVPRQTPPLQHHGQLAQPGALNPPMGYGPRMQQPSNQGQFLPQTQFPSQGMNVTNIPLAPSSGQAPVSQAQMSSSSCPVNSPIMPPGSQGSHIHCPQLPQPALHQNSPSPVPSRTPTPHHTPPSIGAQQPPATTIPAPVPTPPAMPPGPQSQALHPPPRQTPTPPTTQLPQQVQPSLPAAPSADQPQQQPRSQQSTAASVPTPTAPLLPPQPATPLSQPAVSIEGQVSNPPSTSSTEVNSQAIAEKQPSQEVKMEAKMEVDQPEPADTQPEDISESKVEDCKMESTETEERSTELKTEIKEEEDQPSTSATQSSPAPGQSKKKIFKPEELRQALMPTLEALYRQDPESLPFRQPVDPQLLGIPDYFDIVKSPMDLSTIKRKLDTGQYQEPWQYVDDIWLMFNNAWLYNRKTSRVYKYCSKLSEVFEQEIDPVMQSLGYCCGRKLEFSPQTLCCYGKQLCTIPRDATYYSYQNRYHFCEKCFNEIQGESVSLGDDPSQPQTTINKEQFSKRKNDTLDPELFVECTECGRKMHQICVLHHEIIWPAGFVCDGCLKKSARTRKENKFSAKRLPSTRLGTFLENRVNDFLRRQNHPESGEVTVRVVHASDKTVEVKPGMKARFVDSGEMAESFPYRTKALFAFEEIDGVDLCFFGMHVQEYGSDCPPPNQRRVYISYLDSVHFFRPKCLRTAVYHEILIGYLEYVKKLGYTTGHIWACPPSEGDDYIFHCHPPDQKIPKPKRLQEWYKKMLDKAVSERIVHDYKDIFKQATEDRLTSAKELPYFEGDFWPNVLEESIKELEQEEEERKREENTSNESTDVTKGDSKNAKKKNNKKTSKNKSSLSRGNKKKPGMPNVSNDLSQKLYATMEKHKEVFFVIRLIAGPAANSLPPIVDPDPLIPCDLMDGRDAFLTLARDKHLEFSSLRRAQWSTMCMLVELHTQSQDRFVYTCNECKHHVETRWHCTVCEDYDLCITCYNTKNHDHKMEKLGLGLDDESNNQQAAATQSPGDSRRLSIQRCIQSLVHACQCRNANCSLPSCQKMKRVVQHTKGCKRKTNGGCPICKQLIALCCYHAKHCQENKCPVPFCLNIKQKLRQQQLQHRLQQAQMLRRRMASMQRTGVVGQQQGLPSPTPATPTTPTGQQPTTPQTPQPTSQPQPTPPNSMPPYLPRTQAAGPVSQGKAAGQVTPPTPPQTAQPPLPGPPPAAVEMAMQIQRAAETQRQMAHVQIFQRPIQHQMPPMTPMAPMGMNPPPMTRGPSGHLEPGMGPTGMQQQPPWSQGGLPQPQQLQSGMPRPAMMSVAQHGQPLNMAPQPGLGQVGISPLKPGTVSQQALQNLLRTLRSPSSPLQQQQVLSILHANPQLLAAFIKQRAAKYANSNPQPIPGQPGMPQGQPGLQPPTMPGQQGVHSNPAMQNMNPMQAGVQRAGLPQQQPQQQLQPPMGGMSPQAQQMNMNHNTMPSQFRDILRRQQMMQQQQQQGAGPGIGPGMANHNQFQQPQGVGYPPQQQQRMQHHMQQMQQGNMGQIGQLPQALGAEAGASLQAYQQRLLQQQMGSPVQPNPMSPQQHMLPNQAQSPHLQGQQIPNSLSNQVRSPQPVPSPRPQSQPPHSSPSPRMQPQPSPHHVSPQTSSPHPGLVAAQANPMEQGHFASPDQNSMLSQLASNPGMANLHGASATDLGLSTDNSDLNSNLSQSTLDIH
Protein cereblon/Histone acetyltransferase p300, sequence (Q96SW2 whole entry): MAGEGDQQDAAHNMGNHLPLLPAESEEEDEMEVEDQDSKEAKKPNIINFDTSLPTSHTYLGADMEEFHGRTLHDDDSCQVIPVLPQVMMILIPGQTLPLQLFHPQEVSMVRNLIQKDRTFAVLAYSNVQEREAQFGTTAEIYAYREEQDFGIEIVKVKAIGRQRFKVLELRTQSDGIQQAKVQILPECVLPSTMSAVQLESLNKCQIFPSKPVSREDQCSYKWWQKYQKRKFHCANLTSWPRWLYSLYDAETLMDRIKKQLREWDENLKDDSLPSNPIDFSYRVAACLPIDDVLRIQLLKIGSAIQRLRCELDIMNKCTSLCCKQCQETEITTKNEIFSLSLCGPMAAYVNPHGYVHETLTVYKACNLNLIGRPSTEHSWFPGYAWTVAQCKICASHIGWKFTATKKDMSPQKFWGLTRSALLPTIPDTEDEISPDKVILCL

[3] = Metabolic stability in mouse liver microsome assessed as half life measured upto 60 mins in presence of NADPH by LC-MS/MS analysis; format: ADME; settings: liver microsomes
[4] = Drug concentration in rat plasma at 3 mg/kg, po measured at 2 hrs by LC-MS/MS analysis; format: ADME, organism-based
[5] = Half life in Sprague-Dawley rat at 1 mg/kg, iv measured upto 24 hrs by LC-MS/MS analysis; format: ADME, organism-based; settings: in vivo
[6] = Drug concentration in rat plasma at 3 mg/kg, po measured at 5 mins by LC-MS/MS analysis; format: ADME, organism-based
[7] = Drug concentration in rat plasma at 3 mg/kg, po measured at 1 hr by LC-MS/MS analysis; format: ADME, organism-based
[8] = Metabolic stability in rat liver microsome assessed as half life measured upto 60 mins in presence of NADPH by LC-MS/MS analysis; format: ADME; settings: liver microsomes
[9] = Volume of distribution at steady state in Sprague-Dawley rat at 1 mg/kg, iv measured upto 24 hrs by LC-MS/MS analysis; format: ADME, organism-based; settings: in vivo
[10] = Drug concentration in rat plasma at 3 mg/kg, po measured at 4 hrs by LC-MS/MS analysis; format: ADME, organism-based
[11] = AUC (0 to t) in Sprague-Dawley rat at 1 mg/kg, iv measured upto 24 hrs by LC-MS/MS analysis; format: ADME, organism-based; settings: in vivo
[12] = Drug concentration in rat plasma at 3 mg/kg, po measured at 6 hrs by LC-MS/MS analysis; format: ADME, organism-based
[13] = Drug concentration in rat plasma at 3 mg/kg, po measured at 30 mins by LC-MS/MS analysis; format: ADME, organism-based
[14] = Metabolic stability in human liver microsome assessed as half life measured upto 60 mins in presence of NADPH by LC-MS/MS analysis; format: ADME; settings: liver microsomes
[15] = Drug concentration in rat plasma at 3 mg/kg, po measured at 15 mins by LC-MS/MS analysis; format: ADME, organism-based
CWR22R = assay: Antiproliferative activity against human 22Rv1 cells assessed as cell growth inhibition incubated for 4 days by celtiter-glo luminescent assay; settings: 22Rv1, 96 h
VCaP = assay: Antiproliferative activity against human VCaP cells assessed as cell growth inhibition incubated for 4 days by celtiter-glo luminescent assay; settings: 96 h
[16] = Drug concentration in rat plasma at 3 mg/kg, po measured at 24 hrs by LC-MS/MS analysis; format: ADME, organism-based
[17] = biological target: Histone acetyltransferase p300 (Homo sapiens, UniProt Q09472); assay: Binding affinity to p300 (unknown origin) assessed as dissociation constant by ITC analysis
Histone acetyltransferase p300, sequence (Q09472 whole entry): as the sequence (Q09472 whole entry) above

LNCaP = assay: Antiproliferative activity against human LNCaP cells assessed as cell growth inhibition incubated for 4 days by celtiter-glo luminescent assay; settings: 96 h
CREB-binding protein = CREB-binding protein (Homo sapiens, UniProt Q92793); assay: Binding affinity to CBP (unknown origin) assessed as dissociation constant by ITC analysis
[18] = biological target: Bromodomain-containing protein 4 (Homo sapiens, UniProt O60885); assay: Binding affinity to BRD4 (unknown origin) assessed as dissociation constant by ITC analysis

DC50 [1]: 168 nM
DC50 [2]: 46 nM
Compound: CC(=O)N1CCc2c(c(N3CCCc4cc(-c5cnn(C)c5)c(C(F)F)cc43)nn2C2CCN(C(=O)CCCCN3Cc4cc5c(cc4C3)C(=O)N(C3CCC(=O)NC3=O)C5=O)CC2)C1 (configuration not stated)

DC50 [1]: 57 nM
DC50 [2]: 40 nM
Compound: CC(=O)N1CCc2c(c(N3CCCc4cc(C(C)C)c(C(F)F)cc43)nn2C2CCN(C(=O)CN3Cc4cc5c(cc4C3)C(=O)N(C3CCC(=O)NC3=O)C5=O)CC2)C1 (configuration not stated)

DC50 [1]: 31 nM
DC50 [2]: 23 nM
Compound: CC(=O)N1CCc2c(c(N3CCCc4cc(-c5ccccc5)c(C(F)F)cc43)nn2C2CCN(C(=O)CN3Cc4cc5c(cc4C3)C(=O)N(C3CCC(=O)NC3=O)C5=O)CC2)C1 (configuration not stated)

DC50 [1]: 64 nM
DC50 [2]: 17 nM
Compound: CC(=O)N1CCc2c(c(N3CCCc4cc(Br)c(C(F)F)cc43)nn2C2CCN(C(=O)CN3Cc4cc5c(cc4C3)C(=O)N(C3CCC(=O)NC3=O)C5=O)CC2)C1 (configuration not stated)

half-life [3]: > 60 min
concentration at 2 h [4]: 0.4 ng/mL
t1/2 [5]: 1.1 h
concentration at 5 min [6]: 1 ng/mL
concentration at 1 h [7]: 0.3 ng/mL
half-life [8]: > 60 min
DC50 [1]: 519 nM
Vdss [9]: 1.7 L/kg
DC50 [2]: 204 nM
concentration at 4 h [10]: 0.7 ng/mL
AUC(0-t) at 24 h [11]: 88.7 ng·h/mL
concentration at 6 h [12]: 0.9 ng/mL
concentration at 0.5 h [13]: 0.4 ng/mL
half-life [14]: > 60 min
concentration at 0.25 h [15]: 0.5 ng/mL
Compound: CC(=O)N1CCc2c(c(N3CCCc4ccc(C(F)F)cc43)nn2C2CCN(C(=O)CN3Cc4cc5c(cc4C3)C(=O)N(C3CCC(=O)NC3=O)C5=O)CC2)C1 (configuration not stated)

IC50 (VCaP): > 1000 nM
Compound: CNC(=O)c1ccc(N2C(=S)N(c3ccc(C#N)c(C(F)(F)F)c3)C(=O)C2(C)C)cc1F [ENZALUTAMIDE]
IC50 (CWR22R): > 1000 nM

DC50 [1]: > 1000 nM
DC50 [2]: > 1000 nM
Compound: CC(=O)N1CCc2c(c(N3CCCc4cc(-c5cnn(C)c5)c(C(F)F)cc43)nn2C2CCN(C(=O)N3Cc4cc5c(cc4C3)C(=O)N(C3CCC(=O)NC3=O)C5=O)CC2)C1 (configuration not stated)

DC50 [1]: 55 nM
DC50 [2]: 9.6 nM
Compound: CC(=O)N1CCc2c(c(N3CCCc4cc(C)c(C(F)F)cc43)nn2C2CCN(C(=O)CN3Cc4cc5c(cc4C3)C(=O)N(C3CCC(=O)NC3=O)C5=O)CC2)C1 (configuration not stated)

DC50 [1]: 36 nM
DC50 [2]: 41 nM
Compound: CC(=O)N1CCc2c(c(N3CCCc4cc(-c5ccc(F)cc5)c(C(F)F)cc43)nn2C2CCN(C(=O)CN3Cc4cc5c(cc4C3)C(=O)N(C3CCC(=O)NC3=O)C5=O)CC2)C1 (configuration not stated)

DC50 [1]: > 1000 nM
DC50 [2]: > 1000 nM
Compound: CC(=O)N1CCc2c(c(N3CCCc4cc(-c5cnn(C)c5)c(C(F)F)cc43)nn2C2CCN(CC(=O)N3Cc4cc5c(cc4C3)C(=O)N(C3CCC(=O)NC3=O)C5=O)CC2)C1 (configuration not stated)

IC50 (VCaP): 195 nM
Compound: CO[C@H]1CC[C@H](n2c([C@@H]3CCCC(=O)N3c3ccc(F)c(F)c3)nc3cc(-c4c(C)noc4C)ccc32)CC1 [INOBRODIB]

half-life [3]: 19 min
t1/2 [5]: 1.3 h
concentration at 5 min [6]: 3.7 ng/mL
half-life [8]: > 60 min
Vdss [9]: 6.3 L/kg
AUC(0-t) at 24 h [11]: 166 ng·h/mL
half-life [14]: 9.8 min
concentration at 0.25 h [15]: 1.9 ng/mL
concentration at 24 h [16]: 4.6 ng/mL
Compound: CC(=O)N1CCc2c(c(N3CCCc4cc(-c5cnn(C)c5)c(C(F)F)cc43)nn2C2CCN(C(=O)CN3Cc4cc5c(cc4C3)C(=O)N(C3CCC(=O)NC3=O)C5=O)CC2)C1 (configuration not stated)

DC50 [1]: 89 nM
DC50 [2]: 18 nM
Compound: CCc1cc2c(cc1C(F)F)N(c1nn(C3CCN(C(=O)CN4Cc5cc6c(cc5C4)C(=O)N(C4CCC(=O)NC4=O)C6=O)CC3)c3c1CN(C(C)=O)CC3)CCC2 (configuration not stated)

DC50 [1]: 37 nM
DC50 [2]: 39 nM
Compound: CC(=O)N1CCc2c(c(N3CCCc4cc(C5CCCCC5)c(C(F)F)cc43)nn2C2CCN(C(=O)CN3Cc4cc5c(cc4C3)C(=O)N(C3CCC(=O)NC3=O)C5=O)CC2)C1 (configuration not stated)

DC50 [1]: > 1000 nM
DC50 [2]: > 1000 nM
Compound: CC(=O)N1CCc2c(c(N3CCCc4cc(-c5cnn(C)c5)c(C(F)F)cc43)nn2C2CCN(C(=O)CCN3Cc4cc5c(cc4C3)C(=O)N(C3CCC(=O)NC3=O)C5=O)CC2)C1 (configuration not stated)

IC50 (VCaP): > 1000 nM
Kd [17]: 1.3 nM
IC50 (LNCaP): > 1000 nM
Kd (CREB-binding protein): 1.1 nM
Kd [18]: 200 nM
Compound: CC(=O)N1CCc2c(c(N3CCCc4cc(-c5cnn(C)c5)c(C(F)F)cc43)nn2C2CCOCC2)C1
IC50 (CWR22R): > 1000 nM

DC50 [1]: 52 nM
DC50 [2]: 29 nM
Compound: CC(=O)N1CCc2c(c(N3CCCc4cc(C5CC5)c(C(F)F)cc43)nn2C2CCN(C(=O)CN3Cc4cc5c(cc4C3)C(=O)N(C3CCC(=O)NC3=O)C5=O)CC2)C1 (configuration not stated)

DC50 [1]: 24 nM
DC50 [2]: 33 nM
Compound: CC(=O)N1CCc2c(c(N3CCCc4cc(-c5cccs5)c(C(F)F)cc43)nn2C2CCN(C(=O)CN3Cc4cc5c(cc4C3)C(=O)N(C3CCC(=O)NC3=O)C5=O)CC2)C1 (configuration not stated)

DC50 [1]: 368 nM
DC50 [2]: 105 nM
Compound: CC(=O)N1CCc2c(c(N3CCCc4cc(-c5cnn(C)c5)c(C(F)F)cc43)nn2C2CCN(C(=O)CCCN3Cc4cc5c(cc4C3)C(=O)N(C3CCC(=O)NC3=O)C5=O)CC2)C1 (configuration not stated)

DC50 [1]: 362 nM
DC50 [2]: 108 nM
Compound: CC(=O)N1CCc2c(c(N3CCCc4cc(-c5cnn(C)c5)c(C(F)F)cc43)nn2C2CCN(C(=O)CCCCCN3Cc4cc5c(cc4C3)C(=O)N(C3CCC(=O)NC3=O)C5=O)CC2)C1 (configuration not stated)

IC50 (VCaP): 125 nM
Compound: N#Cc1ccc(O[C@H]2CC[C@H](NC(=O)c3ccc(N4CCC(CN5CCN(c6cc7c(cc6F)C(=O)N(C6CCC(=O)NC6=O)C7=O)CC5)CC4)nn3)CC2)cc1Cl (some centres not stated) [BAVDEGALUTAMIDE]

Kd [17]: 1.2 nM
Kd (CREB-binding protein): 0.9 nM
Kd [18]: 4.6 nM
Compound: CNC(=O)N1CCc2c(c(N3CCCc4cc(-c5cnn(C)c5)c(C(F)F)cc43)nn2C2CCOCC2)C1
